Reference: patent US5618675A, “Methods and compositions for detecting lipopolysaccharides using CAP18 fragments” (Panorama Research, Inc., dated 1997)
Where two headings read alike, the source gives them in different places.

Columns and labels:
[1] = test system: Salmonella minnesota ReLPS sensitized sheep erythrocytes; assay: LPS hemagglutination assay (MAC); type: binding
Method: (§1) For hemagglutination assays, erythrocytes were sensitized with LPS as follows. One ml of 1% erythrocyte suspension (human 0 type, C3H/HeN mouse or sheep) was mixed with 0.2 ml of LPS solution and incubated at 37° C. for 30 min, followed by washing with phosphate buffered saline (PBS), and then the concentration of suspension was adjusted to 1.0%. In the case of S-LPS, the solution was heated at 100° C. for 1 hour before sensitization of erythrocytes. […] Activity of CAP was expressed as a minimum agglutinating concentration (MAC) of CAP. According to the method of Kirikae et al. (1986) Microbiol. Immunol. 30:269-274, 50 μl of 2-fold serial dilution of Re-LPS was added to 50 μl of 1.0% rabbit erythrocyte suspension, and incubated at 37° C. for 3, hour. Minimum agglutinating concentration of Re-LPS was expressed as 1 HA unit.

E. coli 0111:B4 LPS = assay: Inhibition of RNIP-mediated hemagglutination by LPS; type: binding; conditions: #36-1 at 16 μg/ml, RNIP (#197) at 25 μg/ml preincubated with LPS 30 minutes
Method: as §1
(§2) Another series of experiments was performed to determine if the #36-1 and #197 (RNIP) peptides were capable of binding to LPS from various species of Gram-negative bacteria. For these experiments, sheep red blood cells were sensitized with Salmonella minnesota Re-LPS. Peptides #36-1 and #197 (RNIP) were preincubated with various preparations of LPS. Both peptides bind to a diverse group of lipopolysaccharides.
(§3) °Peptide #361 (16 μg/ml) and RNIP (#197) (25 μg/ml) were
(§4) preincubated with each LPS preparation at 370 for 30 minutes, and each
(§5) reaction mixture was added to sheep erythrocytes sensitized with RELPS.

E. coli 0127:B8 LPS = assay: as above; type: binding; conditions: #36-1 at 16 μg/ml, RNIP (#197) at 25 μg/ml preincubated with LPS 30 minutes
Method: as §1, §2, §3, §4, §5

E. coli 055:B5 LPS = assay: as above; type: binding; conditions: #36-1 at 16 μg/ml, RNIP (#197) at 25 μg/ml preincubated with LPS 30 minutes
Method: as §1, §2, §3, §4, §5

E. coli J5 LPS = assay: as above; type: binding; conditions: #36-1 at 16 μg/ml, RNIP (#197) at 25 μg/ml preincubated with LPS 30 minutes
Method: as §1, §2, §3, §4, §5

[2] = test system: Klebsiella pneumoniae LPS; assay: as above; type: binding; conditions: #36-1 at 16 μg/ml, RNIP (#197) at 25 μg/ml preincubated with LPS 30 minutes
Method: as §1, §2, §3, §4, §5

[3] = test system: Pseudomonas aeruginosa F-D Type I LPS; assay: as above; type: binding; conditions: #36-1 at 16 μg/ml, RNIP (#197) at 25 μg/ml preincubated with LPS 30 minutes
Method: as §1, §2, §3, §4, §5

[4] = test system: Salmonella minnesota R595 LPS; assay: as above; type: binding; conditions: #36-1 at 16 μg/ml, RNIP (#197) at 25 μg/ml preincubated with LPS 30 minutes
Method: as §1, §2, §3, §4, §5

[5] = test system: two strains of Mycobacterium avium; assay: Antimicrobial activity; type: cell-based; conditions: range 0-20 μg/ml
[6] = test system: thioglycolate-stimulated murine peritoneal macrophages; assay: LPS-induced tissue factor generation by macrophages; type: cell-based; conditions: for inhibition of LPS induced tissue factor: peptide 1 μg/ml, 6 hr, FIG. 12
Method: […] Cells were cultured for 6 hours prior to assay of tissue factor by clotting assay.
[…] Production of tissue factor after 6 hr. was measured by clotting assay. […] In the absence of LPS no tissue factor is synthesized by these cells.

Human plasma = assay: Activated partial thromboplastin time (APTT); type: biochemical
Method: (§6) Clotting method: Human plasma (Ortho plasma control, Ortho Diagnostic Co.). ATPP reagent (Organotechnika, Tokyo, Japan). Standard tissue factor, rabbit brain thromboplastin (Simplastin, ONO Pharmaceutical, Tokyo, Japan). Purified human factor VII, factor X, factor Xa (Sigma Chemical Co., St. Louis, Mo.). Russell Viper venom (RVV) and Echis carinatus venom (ECV, Sigma Co.).
Instrumentation: Clotting assays were carried out using a Fibrometer (BioQuest Division, Becton Dickinson; Cokeysville, […]., USA).
Human plasma (100 μl), 100 μl of APTT reagent and 100 μl of peptide was incubated at 37° C. for 5 min after which CaCl2 was added and clotting time measured.

factor Xa = molecular target: T1, factor Xa (Homo sapiens, UniProt P00742); assay: Direct inhibition of Xa, substrate S2222; type: biochemical; conditions: for direct Xa inhibition: concentrations over 10 μg/ml, substrate S2222; for IC50 / IC50, Direct Xa: synthetic substrate
T1 construct: purchased Sigma Chemical Co., St. Louis, Mo
Description: as §6
(§7) Synthetic chromogenic substrate method: Substrate for factor Xa, S2222 (Kabi, Bz-Ile-Glu-Arg-pNA) was used. Substrate for factor II (prothrombin), Boc-Val-Pro-Arg-pNA (Sigma Chemical Co.) was used.
Next the effect of the RNIP peptides on the conversion of factor X to Xa was studied by two methods. […] In summary these studies confirmed that the peptides inhibit the clotting cascade by inhibiting the conversion of factor X to Xa.

factor X = molecular target: T2, factor X (Homo sapiens, UniProt P00742); assay: Factor X activation by tissue factor and factor VII, synthetic substrate S-2222; type: biochemical; conditions: FIG. 16B
T2 construct: purchased Sigma Chemical Co., St. Louis, Mo
Description: as §6, §7
A reaction mixture of factor VII (1 unit/ml, 200 μl), factor X (1 unit/ml, 200 μl), tissue factor (2.5 mg/ml, 50 μl), 25 mM-CaCl2(50 μl) and 50 μl of several concentration of peptide was incubated at 37° C. for 10 min. To 200 μl of the reaction mixture, 60 μl of 4 mM S-2222, a synthetic substrate for factor Xa, and 340 μl of Tris-HCl buffer, pH 8.2, was added and further incubated for 15 min. The reaction was stopped by adding 60 μl of 50% acetic acid, and OD for p-nitroaniline was read at 405 nm.

prothrombin (factor II) = prothrombin (factor II) (Homo sapiens, UniProt P00734); assay: Prothrombin activation by factor Xa; type: biochemical; conditions: Xa formed from tissue factor, factor VII and factor X, FIG. 17B
Method: as §7
a) Factor X activation. Factor X (1 unit/ml, 400 μl) was activated by incubating with a reaction mixture of factor VII (1 unit/ml, 400 μl), tissue factor (5 mg/ml, 100 μl) and CaCl2 at 37° C. for 10 min.
b) Prothrombin (factor II) activation.
c) Hydrolysis of thrombin substrate. To 300 μl of the reaction mixture (step b), thrombin 60 μl of substrate and 240 μl of Tris buffer was added and further incubated for 15 min.

Candida albicans = assay: Antimicrobial activity; conditions: range 0-20 μg/ml
Pseudomonas aeruginosa = assay: Antibacterial CFU assay; conditions: for IC50: read-out: anti-bacterial IC50 (CFU)
Klebsiella pneumoniae = assay: Antibacterial CFU assay
[7] = test system: methicillin-resistant Staphylococcus aureus; assay: Antibacterial CFU assay; conditions: for IC50: read-out: IC50, inhibition of CFU

T2 sequence (P00742 41-179 limits assumed): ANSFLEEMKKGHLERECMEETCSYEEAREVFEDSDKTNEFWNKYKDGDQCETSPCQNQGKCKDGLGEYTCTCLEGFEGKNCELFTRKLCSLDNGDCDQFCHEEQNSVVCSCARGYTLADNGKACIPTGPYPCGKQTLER
T2 sequence (P00742 183-488 limits assumed): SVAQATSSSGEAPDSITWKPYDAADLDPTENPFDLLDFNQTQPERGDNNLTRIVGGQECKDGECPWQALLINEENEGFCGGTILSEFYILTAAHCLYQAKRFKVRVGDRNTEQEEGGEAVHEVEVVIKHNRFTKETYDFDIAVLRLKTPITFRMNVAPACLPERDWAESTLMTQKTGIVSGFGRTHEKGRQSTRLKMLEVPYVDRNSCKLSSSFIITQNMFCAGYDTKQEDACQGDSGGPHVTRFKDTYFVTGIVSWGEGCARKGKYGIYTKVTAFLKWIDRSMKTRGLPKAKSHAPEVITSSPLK
T1 sequence (P00742 41-179 limits assumed): as the sequence (P00742 41-179 limits assumed) above
T1 sequence (P00742 235-488 limits assumed): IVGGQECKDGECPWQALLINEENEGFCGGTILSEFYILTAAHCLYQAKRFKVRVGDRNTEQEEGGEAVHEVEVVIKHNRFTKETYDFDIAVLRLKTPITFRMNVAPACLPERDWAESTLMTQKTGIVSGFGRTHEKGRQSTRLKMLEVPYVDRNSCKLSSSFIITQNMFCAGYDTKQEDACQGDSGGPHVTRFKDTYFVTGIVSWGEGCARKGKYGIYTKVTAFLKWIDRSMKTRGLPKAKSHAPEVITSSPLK

“36-1: synthetic rabbit RNIP-derived fragment, amino acids 135-166 of SEQ ID NO:4 (GLRKRLRKFRNKIKEKLKKIGQKIQGLLPKLA)” was tested, and the “Hemagglutination MAC (minimum agglutinating concentration)” value [1] was 3.9 µg/mL, the “MIC (minimal inhibitory concentration of LPS)” value (E. coli 0111:B4 LPS) was 15.6 µg/mL and the “MIC (minimal inhibitory concentration of LPS)” value (E. coli 0127:B8 LPS) was 15.6 µg/mL. The “MIC (minimal inhibitory concentration of LPS)” value (E. coli 055:B5 LPS) was 15.6 µg/mL, the “MIC (minimal inhibitory concentration of LPS)” value (E. coli J5 LPS) was 7.8 µg/mL and the “MIC (minimal inhibitory concentration of LPS)” value [2] was 31.3 µg/mL. The “MIC (minimal inhibitory concentration of LPS)” value [3] was 3.9 µg/mL, the “MIC (minimal inhibitory concentration of LPS)” value [4] was 15.6 µg/mL and the “activity versus two strains of Mycobacterium avium” value [5] was “inactive”. For the same substance, the “inhibition of LPS induced tissue factor” value [6] was “inhibition”, the “IC50, Activate Partial Thromboplastin time” value (Human plasma) was 3.8 µg/mL and the IC50 (Human plasma; read-out: IC50, Activate Partial Thromboplastin time) was 700 nM. The “direct Xa inhibition” value (factor Xa) was “No evidence of direct Xa inhibition”, the IC50 (factor Xa) was 8000 to 46000 nM and the “IC50, Direct Xa” value (factor Xa) was 45 to 250 µg/mL. The “IC50, factor X activated by tissue factor and purified factor VII” value (factor X) was 0.6 to 0.7 µg/mL, the “IC50, factor II activated by Xa” value (prothrombin (factor II)) was under 1.8 µg/mL and the IC50 (prothrombin (factor II); read-out: IC50, factor II activated by Xa) was under 300 nM. The “activity versus Candida albicans” value (Candida albicans) was “inactive”, the “anti-bacterial IC50 (CFU)” value (Pseudomonas aeruginosa) was under 0.25 µg/mL and the IC50 (Pseudomonas aeruginosa) was under 50 nM. The “anti-bacterial IC50 (CFU)” value (Klebsiella pneumoniae) was under 0.54 µg/mL, the “IC50, inhibition of CFU” value [7] was 0.72 µg/mL and the IC50 [7] was 130 nM.
In the case of “RNIP: reactive nitrogen inhibitory protein, amino acids 135-171 of SEQ ID NO:4 (rabbit CAP18 C-terminus); purified from granulocytes or synthetic (#197) (GLRKRLRKFRNKIKEKLKKIGQKIQGLLPKLAPRTDY)”, the “Hemagglutination MAC (minimum agglutinating concentration)” value [1] is reported as 7.9 µg/mL, the “MIC (minimal inhibitory concentration of LPS)” value (E. coli 0111:B4 LPS) is reported as 31.3 µg/mL and the “MIC (minimal inhibitory concentration of LPS)” value (E. coli 0127:B8 LPS) is reported as 62.5 µg/mL. For the same substance, the “MIC (minimal inhibitory concentration of LPS)” value (E. coli 055:B5 LPS) was 62.5 µg/mL, the “MIC (minimal inhibitory concentration of LPS)” value (E. coli J5 LPS) was 15.6 µg/mL and the “MIC (minimal inhibitory concentration of LPS)” value [2] was 62.5 µg/mL. The “MIC (minimal inhibitory concentration of LPS)” value [3] was 15.6 µg/mL, the “MIC (minimal inhibitory concentration of LPS)” value [4] was 62.5 µg/mL and the “activity versus two strains of Mycobacterium avium” value [5] was “inactive”. The “inhibition of LPS-induced tissue factor generation when peptide added after LPS” value ([6]; added as late as 3 hours after the LPS stimulus, FIG. 13) was “Significant inhibition”, the “inhibition of LPS induced tissue factor” value [6] was “inhibition” and the “IC50, Activate Partial Thromboplastin time” value (Human plasma) was 3.2 µg/mL. The “direct Xa inhibition” value (factor Xa) was “No evidence of direct Xa inhibition”, the IC50 (factor Xa) was 9000 to 33000 nM and the “IC50, Direct Xa” value (factor Xa) was 55 to 200 µg/mL. For the same substance, the “IC50, factor X activated by tissue factor and purified factor VII” value (factor X) was 0.3 to 0.6 µg/mL, the IC50 (factor X; read-out: IC50, factor X activated by tissue factor and purified factor VII) was 40 to 100 nM and the “IC50, factor II activated by Xa” value (prothrombin (factor II)) was 2.8 µg/mL. The “activity versus Candida albicans” value (Candida albicans) was “inactive”, the “anti-bacterial IC50 (CFU)” value (Pseudomonas aeruginosa; FIG. 6E) was under 250 µg/mL and the IC50 (Pseudomonas aeruginosa) was under 40 nM. For the same substance, the “anti-bacterial IC50 (CFU)” value (Klebsiella pneumoniae) was under 0.44 µg/mL, the IC50 (Klebsiella pneumoniae; read-out: anti-bacterial IC50 (CFU)) was under 70 nM and the “IC50, inhibition of CFU” value [7] was 1 µg/mL. For the same substance, the IC50 [7] was 160 nM.
